Data as given in patent US10940139B2, “Compounds that interact with the Ras superfamily for the treatment of cancers, inflammatory diseases, rasopathies, and fibrotic disease” (Shy Therapeutics LLC, priority 2017, dated 2021).

Experiments:
[1] = target: GTP binding domain of Ras; settings: literature, kinetic and filter binding measurements with radiolabeled GDP and GTP; cited from earlier work
[2] = target: K-Ras GTP binding domain across wild type and mutant K-Ras; experiment: SPA and MST studies, summary range across K-Ras forms; settings: read-out: affinity of GTP for the K-Ras GTP binding domain
Excerpt: For the first time, the affinity of GTP for the GTP binding domain of K-Ras utilizing a Scintillation Proximity Assay (SPA) and MicroScale Thermophoresis (MST) has been measured and disclosed herein. These methods were not available when Wittinghofer and colleagues (referenced above) undertook their studies.
(§1) This therefore led to the novel, unanticipated conclusion that compounds such as small molecules could be discovered that would bind to a Ras GTP binding domain and compete with the binding of GTP to Ras.
(§2) For the first time, the affinity of GTP for the GTP binding domain of K-Ras utilizing a Scintillation Proximity Assay (SPA) and MicroScale Thermophoresis (MST) has been measured and disclosed herein. These methods were not available when Wittinghofer and colleagues undertook their studies.
See Khawaja et al., “Scintillation proximity assay in lead discovery”, Expert Opin. Drug Discov., 2008 November; 3(11):1267-80 regarding SPA procedures. […]

[3] = target: T1, Rho-A (Homo sapiens (Human), UniProt P61586); experiment: MicroScale Thermophoresis (MST), GTP affinity for binding domain
[4] = target: T2, Rac-1 (Homo sapiens (Human), UniProt P63000); experiment: Scintillation Proximity Assay (SPA), GTP affinity for binding domain
[5] = target: T3, K-Ras (Q61H/G12C) (Homo sapiens (Human), UniProt P01116, G12C/Q61H); experiment: as above
Excerpt: as §2, §1
(§3) See Khawaja et al., “Scintillation proximity assay in lead discovery”, Expert Opin. Drug Discov., 2008 November; 3(11):1267-80 regarding SPA procedures. See the following references regarding MST technology: Wienken et al., Nature Communications (2010), Protein binding assays in biological liquids using MicroScale Thermophoresis; Jerabek-Willemsen et al., ASSAY and Drug Development Technologies (2011), Molecular interaction studies using MicroScale Thermophoresis; Lin et al., Cell (2012), Inhibition of basal FGF receptor signaling by dimeric Grb2; Seidel et al., Angewandte Chemie (2012), Label-Free MicroScale Thermophoresis discriminates sites and affinity of protein-ligand binding; Seidel et al., Methods (2012), MicroScale Thermophoresis quantifies biomolecular interactions under previously challenging conditions; Parker & Newstead, Nature (2014), Molecular basis of nitrate uptake by the plant nitrate transporter NRT1.1; and Jerabek-Willemsen et al., Journal of Molecular Structure (2014), MicroScale Thermophoresis: Interaction analysis and beyond.

[6] = target: T4, KRas wild type (Homo sapiens (Human), UniProt P01116); experiment: as above
Excerpt: as §2, §1, §3

[7] = target: T5, K-Ras (G12D) (Homo sapiens (Human), UniProt P01116, G12D); experiment: as above
Excerpt: as §2, §1, §3

[8] = target: T6, K-Ras (G12C) (Homo sapiens (Human), UniProt P01116, G12C); experiment: as above
Excerpt: as §2, §1, §3

[9] = target: T7, K-Ras (Q61H/G12D) (Homo sapiens (Human), UniProt P01116, G12D/Q61H); experiment: as above
Excerpt: as §2, §1, §3

[10] = target: T8, K-Ras (Q61H) (Homo sapiens (Human), UniProt P01116, Q61H); experiment: as above
Excerpt: as §2, §1, §3

[11] = target: Rac-1 and Rho-A members of the Rho subfamily; experiment: SPA and MST studies, summary range for Rho subfamily members; settings: read-out: affinity of GTP for the binding domain of Rho subfamily members
Excerpt: as §1, §3

[12] = target: T1, Rho-A; experiment: Scintillation Proximity Assay (SPA), GTP affinity for binding domain
[13] = target: T2, Rac-1; experiment: MicroScale Thermophoresis (MST), GTP affinity for binding domain
[14] = target: T3, K-Ras (Q61H/G12C); experiment: as above
Excerpt: as §2, §1, §3

[15] = target: T4, KRas wild type; experiment: as above
Excerpt: as §2, §1, §3

[16] = target: T5, K-Ras (G12D); experiment: as above
Excerpt: as §2, §1, §3

[17] = target: T6, K-Ras (G12C); experiment: as above
Excerpt: as §2, §1, §3

[18] = target: T7, K-Ras (Q61H/G12D); experiment: as above
Excerpt: as §2, §1, §3

[19] = target: T8, K-Ras (Q61H); experiment: as above
Excerpt: as §2, §1, §3

[20] = test system: MIA-PACA2 pancreatic cancer cell lines; experiment: Cell proliferation assay (CellTiter 96 AQueous One); type: cell-based; settings: Homo sapiens, MIA PaCa-2; for IC50: MIA-PACA2, compound tested under both conditions, which assay gave the IC50 is not stated; for inhibition at 30 µM: MIA-PACA2
[21] = test system: MIA-PACA2 pancreatic cancer cell lines; experiment: Cell proliferation assay, alternate assay conditions (DAPI fluorescence); type: cell-based; settings: Homo sapiens, MIA PaCa-2; for inhibition at 10 µM: * = tested at 10 μM, alternate conditions, MIA-PACA2; for IC50: MIA-PACA2, same assay as the % inhibition (alternate conditions)
Description: Cell lines: Tumor-derived pancreatic cancer cell lines MIA-PACA2 were purchased from ATCC and grown in complete DMEM-High Glucose medium supplemented with penicillin (100 U/mL), streptomycin (100 μg/mL), and 10% heat-inactivated FBS at 37° C. in a humidified incubator with 5% CO2.
Method: Cells are plated at 4000 cells/well density in 96-wells plate. The next day tested small molecules are added to the cells in the final concentration of 10 μM in the presence of 0.3% DMSO and 10% FBS. After small molecules addition, cells are incubated for 4 days at 37° C. in a humidified incubator with 5% CO2. For IC50 value determination, serial dilutions of compounds were added to cells under the same conditions.
Assay: At the end of the incubation period, cell cultures are fixed with a 50-50 mixture (v/v) acetone-methanol for 10 minutes at −20° C., followed by rehydration in PBS for 10 minutes at room temperature. After rehydration, cells are stained with DAPI (1 μg/ml) in PBS for 10 minutes at room temperature, followed by 3 washes with PBS. After staining, DAPI fluorescence is recorded (358 nm excitation/461 nm emission) with the 96-well plate reader Molecular Devices Spectramax M3; degree of small mole-cule-dependent proliferation inhibition is calculated from raw data assuming No Serum cells value as 100%.

T8 sequence (P01116-2 other isoform, or with tags, fused parts or gaps Q61H): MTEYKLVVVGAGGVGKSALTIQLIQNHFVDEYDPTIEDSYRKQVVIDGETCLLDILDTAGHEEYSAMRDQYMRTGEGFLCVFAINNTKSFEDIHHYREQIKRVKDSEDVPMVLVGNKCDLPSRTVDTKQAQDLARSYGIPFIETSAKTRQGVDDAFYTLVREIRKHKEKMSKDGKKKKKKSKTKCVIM
T4 sequence (P01116-2 other isoform, or with tags, fused parts or gaps): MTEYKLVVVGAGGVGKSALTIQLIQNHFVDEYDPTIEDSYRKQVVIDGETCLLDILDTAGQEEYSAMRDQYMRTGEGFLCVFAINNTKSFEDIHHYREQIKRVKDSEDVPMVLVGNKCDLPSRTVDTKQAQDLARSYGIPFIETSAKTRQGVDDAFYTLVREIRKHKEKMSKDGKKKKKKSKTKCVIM
T1 sequence (P61586 whole entry, the tested form may be a part): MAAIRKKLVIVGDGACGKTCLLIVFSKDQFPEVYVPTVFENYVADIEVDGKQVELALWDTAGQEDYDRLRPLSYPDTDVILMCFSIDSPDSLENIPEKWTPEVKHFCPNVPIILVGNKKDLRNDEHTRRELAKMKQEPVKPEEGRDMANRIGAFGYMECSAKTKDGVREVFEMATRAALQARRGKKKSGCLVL
T7 sequence (P01116-2 other isoform, or with tags, fused parts or gaps G12D/Q61H): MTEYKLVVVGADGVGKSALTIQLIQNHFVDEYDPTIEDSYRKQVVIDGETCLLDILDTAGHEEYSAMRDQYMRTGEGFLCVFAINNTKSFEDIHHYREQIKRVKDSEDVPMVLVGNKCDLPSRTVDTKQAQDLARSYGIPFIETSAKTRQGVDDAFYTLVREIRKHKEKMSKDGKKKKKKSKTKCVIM
T5 sequence (P01116-2 other isoform, or with tags, fused parts or gaps G12D): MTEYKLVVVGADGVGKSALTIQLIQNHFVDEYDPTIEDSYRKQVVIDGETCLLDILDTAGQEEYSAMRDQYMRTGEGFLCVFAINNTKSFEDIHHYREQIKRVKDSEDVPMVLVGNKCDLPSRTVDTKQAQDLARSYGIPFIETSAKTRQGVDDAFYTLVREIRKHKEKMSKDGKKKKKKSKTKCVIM
T6 sequence (P01116-2 other isoform, or with tags, fused parts or gaps G12C): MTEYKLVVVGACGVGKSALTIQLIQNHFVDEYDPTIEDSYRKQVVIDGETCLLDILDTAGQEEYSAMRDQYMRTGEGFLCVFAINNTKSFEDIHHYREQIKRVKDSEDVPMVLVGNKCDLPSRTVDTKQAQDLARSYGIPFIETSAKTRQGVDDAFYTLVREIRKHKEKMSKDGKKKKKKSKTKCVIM
T3 sequence (P01116-2 other isoform, or with tags, fused parts or gaps G12C/Q61H): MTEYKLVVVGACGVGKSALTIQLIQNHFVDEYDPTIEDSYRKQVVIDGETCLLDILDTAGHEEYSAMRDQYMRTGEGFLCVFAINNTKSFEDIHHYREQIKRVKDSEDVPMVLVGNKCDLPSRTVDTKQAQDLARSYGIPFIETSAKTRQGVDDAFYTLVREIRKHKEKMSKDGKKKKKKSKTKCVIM

In the case of `Nc1nc2c(ncn2[C@@H]2O[C@H](COP(=O)(O)OP(=O)(O)O)[C@@H](O)[C@H]2O)c(=O)[nH]1` [GDP], the “affinity for the GTP binding domain of Ras” value [1] is given as “single to double digit picomolar”.

In the case of `Nc1nc2c(ncn2[C@@H]2O[C@H](COP(=O)(O)OP(=O)(O)OP(=O)(O)O)[C@@H](O)[C@H]2O)c(=O)[nH]1` [GTP], the “affinity for the GTP binding domain of Ras” value [1] is given as “single to double digit picomolar”, the Kd [2] is given as 100 to 465 nM and the Kd [3] is given as 130 ± 5 nM. The Kd [4] was 151 ± 14 nM, the Kd [5] was 104 ± 11 nM and the Kd [6] was 243 ± 15 nM. The Kd [7] was 270 ± 15 nM, the Kd [8] was 258 ± 18 nM and the Kd [9] was 135 ± 19 nM. It also gave a Kd [10] of 118 ± 11 nM, a Kd [11] of 120 to 170 nM and a Kd [12] of 129 ± 12 nM. The Kd [13] was 166 ± 10 nM, the Kd [14] was 266 ± 57 nM and the Kd [15] was 463 ± 2 nM. For the same molecule, the Kd [16] was 244 ± 12 nM, the Kd [17] was 207 ± 46 nM and the Kd [18] was 268 ± 108 nM. The Kd [19] was 157 ± 21 nM.

`COCc1ccc(-c2csc3c(O)nc(-c4ccccn4)nc23)cc1F` [drawing 1722] showed an IC50 [20] of less than 100 nM, an inhibition at 30 µM [20] of 76 to 100% and an inhibition at 10 µM [21] of 76 to 100%.

With `Oc1nc(-c2ccccn2)nc2c(-c3cccc(C(F)(F)F)c3)csc12` [drawing 1749] the IC50 [20] was 100 to 500 nM, the inhibition at 30 µM [20] was 76 to 100% and the inhibition at 10 µM [21] was 76 to 100%.

`CC(C)COc1ccc(-c2csc3c(O)nc(-c4ccccn4)nc23)cn1` [drawing 1753] gave an IC50 [20] of 501 to 1000 nM, an inhibition at 30 µM [20] of 76 to 100% and an inhibition at 10 µM [21] of 76 to 100%.

Molecule `Oc1nc(-c2ccccn2)nc2c(-c3ccccn3)csc12` [drawing 1772] has an IC50 [20] greater than 1000 nM, an inhibition at 30 µM [20] of 76 to 100% and an inhibition at 10 µM [21] of 76 to 100%.

`Cc1sc2c(O)nc(-c3nccn3C)nc2c1-c1ccccc1Cl` [drawing 1904] gave an inhibition at 10 µM [21] of 76 to 100% and an IC50 [21] of 100 to 500 nM.

`Cn1ccnc1-c1nc(O)c2scc(-c3cccc(OC(F)(F)F)c3)c2n1` [drawing 1905] gave an inhibition at 10 µM [21] of 76 to 100% and an IC50 [21] of 100 to 500 nM.

Work on `Cn1cnc(-c2nc(O)c3scc(-c4cccc(C(F)(F)F)c4)c3n2)c1` [drawing 1906] yielded an inhibition at 10 µM [21] of 76 to 100%.

`CC(C)COc1ccc(-c2csc3c(O)nc(-c4cn(C)cn4)nc23)cn1` [drawing 1907] showed an inhibition at 10 µM [21] of 76 to 100%.

Work on `Cn1cnc(-c2nc(O)c3scc(-c4cccc(OC(F)(F)F)c4)c3n2)c1` [drawing 1908] yielded an inhibition at 10 µM [21] of 76 to 100%.

In the case of `Oc1nc(-c2ccncn2)nc2c(-c3cccc(C(F)(F)F)c3)csc12` [drawing 1909], the inhibition at 10 µM [21] is reported as 76 to 100% and the IC50 [21] is reported as greater than 1000 nM.

Molecule `Oc1nc(-c2ncccn2)nc2c(-c3cccc(C(F)(F)F)c3)csc12` [drawing 1910] has an inhibition at 10 µM [21] of 76 to 100%.

With `CC(C)Oc1ccc(-c2csc3c(O)nc(-c4nccn4C)nc23)cc1F` [drawing 1911] the inhibition at 10 µM [21] was 76 to 100%.

Work on `Cc1sc2c(O)nc(-c3nccn3C)nc2c1-c1ccc(OC(C)C)c(F)c1` [drawing 1912] yielded an inhibition at 10 µM [21] of 76 to 100%.

For `CC(C)Oc1ccc(-c2c(-c3ccccc3)sc3c(O)nc(-c4nccn4C)nc23)cc1F` [drawing 1913], the inhibition at 10 µM [21] was 76 to 100%.

For `CC(C)COc1ccc(-c2csc3c(O)nc(-c4nccn4C)nc23)cn1` [drawing 1914], the inhibition at 10 µM [21] was 76 to 100% and the IC50 [21] was 100 to 500 nM.

Molecule `COc1ccc(-c2csc3c(O)nc(-c4nccn4C)nc23)cn1` [drawing 1915] has an inhibition at 10 µM [21] of 76 to 100%.

Molecule `Cn1ccnc1-c1nc(O)c2scc(-c3ccccc3)c2n1` [drawing 1916] has an inhibition at 10 µM [21] of 76 to 100%.

Work on `Cn1ccnc1-c1nc(O)c2scc(-c3ccccc3Cl)c2n1` [drawing 1917] yielded an inhibition at 10 µM [21] of 76 to 100%.

Molecule `Cn1ccnc1-c1nc(O)c2scc(-c3ccc(F)cc3F)c2n1` [drawing 1918] has an inhibition at 10 µM [21] of 76 to 100%.

`Cn1ccnc1-c1nc(O)c2scc(-c3cccc(Cl)c3)c2n1` [drawing 1919] showed an inhibition at 10 µM [21] of 76 to 100%.

For `COC(C)(C)c1ccc(-c2csc3c(O)nc(-c4nccn4C)nc23)cc1` [drawing 1920], the inhibition at 10 µM [21] was 76 to 100%.

For `Cn1ccnc1-c1nc(O)c2scc(-c3ccc(C(C)(C)C)cc3)c2n1` [drawing 1921], the inhibition at 10 µM [21] was 76 to 100%.

`COCCNc1nc(-c2ccccn2)nc2sc(-c3ccccc3)c(-c3ccccn3)c12` [drawing 1922] gave an inhibition at 10 µM [21] of 76 to 100%.

With `Cc1sc2c(O)nc(-c3nccn3C)nc2c1-c1ccc(F)cc1F` [drawing 1923] the inhibition at 10 µM [21] was 76 to 100%.

`COCCNc1nc(-c2nccn2C)nc2sc(-c3ccccc3)c(-c3ccccn3)c12` [drawing 1924] showed an inhibition at 10 µM [21] of 76 to 100% and an IC50 [21] of 501 to 1000 nM.
